Results taken from ChEMBL document CHEMBL1159219, “Flavonoids as DNA topoisomerase antagonists and poisons: structure-activity relationships” (J Nat Prod, 1995).
Converted amounts (≈) assume the structure as drawn. The source made the active and inactive calls. The rule behind the calls is not given here.

What was measured:
[1] = target: T1, DNA topoisomerase 2-alpha (Homo sapiens, UniProt P11388); assay: Inhibition of human DNA topoisomerase 2 catalytic domain-mediated knotted bacteriophage P4Virl dell0 DNA unknotting by agarose gel electrophoresis
Bos taurus [2] = species: Bos taurus; assay: Inhibition of calf thymus DNA topoisomerase 1 catalytic domain-mediated supercoiled Escherichia coli pUC8 DNA relaxation up to 100 uM after 30 mins by agarose gel electrophoresis
[3] = target: T1, DNA topoisomerase 2-alpha; assay: Inhibition of human DNA topoisomerase 2 catalytic domain-mediated knotted bacteriophage P4Virl dell0 DNA unknotting at 100 uM by agarose gel electrophoresis
Escherichia coli = assay: Binding affinity to Escherichia coli pUC8 DNA assessed as production of linear DNA at 100 ug/ml after 30 mins by agarose gel electrophoresis
[4] = target: T1, DNA topoisomerase 2-alpha; assay: Enhancement of human DNA topoisomerase 2-mediated Escherichia coli pUC8 DNA cleavage assessed as production of linear DNA at 100 ug/ml after 30 mins by agarose gel electrophoresis relative to total DNA
[5] = Inhibition of calf thymus DNA topoisomerase 1 catalytic domain-mediated supercoiled Escherichia coli pUC8 DNA relaxation after 30 mins by agarose gel electrophoresis; parameters: species or system Bos taurus
[6] = target: T1, DNA topoisomerase 2-alpha; assay: Enhancement of human DNA topoisomerase 2-mediated Escherichia coli pUC8 DNA cleavage assessed as production of linear DNA at 100 ug/ml after 30 mins by agarose gel electrophoresis relative to control
[7] = target: T1, DNA topoisomerase 2-alpha; assay: Enhancement of human DNA topoisomerase 2-mediated Escherichia coli pUC8 DNA cleavage after 30 mins by agarose gel electrophoresis; parameters: concentration or dose not given beside the values
Bos taurus [8] = species: Bos taurus; assay: Inhibition of calf thymus DNA topoisomerase 1 catalytic domain-mediated supercoiled Escherichia coli pUC8 DNA relaxation at 100 uM after 30 mins by agarose gel electrophoresis
[9] = target: T1, DNA topoisomerase 2-alpha; assay: Inhibition of human DNA topoisomerase 2 catalytic domain-mediated knotted bacteriophage P4Virl dell0 DNA unknotting up to 100 uM by agarose gel electrophoresis
[10] = target: T1, DNA topoisomerase 2-alpha; assay: Inhibition of human DNA topoisomerase 2-mediated Escherichia coli pUC8 DNA cleavage enhancement assessed as absence of linear DNA production after 30 mins by agarose gel electrophoresis in presence of prunetin
[11] = target: T1, DNA topoisomerase 2-alpha; assay: Inhibition of human DNA topoisomerase 2-mediated Escherichia coli pUC8 DNA cleavage enhancement assessed as absence of linear DNA production at 100 ug/ml after 30 mins by agarose gel electrophoresis in presence of 100 ug/ml genistein
Bos taurus [12] = species: Bos taurus; assay: Inhibition of calf thymus DNA topoisomerase 1-mediated Escherichia coli pUC8 DNA cleavage enhancement assessed as absence of linear DNA production after 30 mins by agarose gel electrophoresis in presence of camptothecin
[13] = target: T1, DNA topoisomerase 2-alpha; assay: Enhancement of human DNA topoisomerase 2-mediated Escherichia coli pUC8 DNA cleavage assessed as production of linear DNA at 3 to 100 ug/ml after 30 mins by agarose gel electrophoresis
[14] = target: T1, DNA topoisomerase 2-alpha; assay: Inhibition of human DNA topoisomerase 2-mediated Escherichia coli pUC8 DNA cleavage enhancement assessed as reduction of linear DNA production after 30 mins by agarose gel electrophoresis in presence of 10 fold excess genistein
[15] = target: T1, DNA topoisomerase 2-alpha; assay: Enhancement of human DNA topoisomerase 2-mediated Escherichia coli pUC8 DNA cleavage assessed as production of linear DNA at 100 ug/ml after 30 mins by agarose gel electrophoresis
[16] = target: T1, DNA topoisomerase 2-alpha; assay: Enhancement of human DNA topoisomerase 2-mediated Escherichia coli pUC8 DNA cleavage assessed as production of linear DNA at 30 ug/ml after 30 mins by agarose gel electrophoresis

T1 sequence (P11388 whole entry, the tested form may be a part): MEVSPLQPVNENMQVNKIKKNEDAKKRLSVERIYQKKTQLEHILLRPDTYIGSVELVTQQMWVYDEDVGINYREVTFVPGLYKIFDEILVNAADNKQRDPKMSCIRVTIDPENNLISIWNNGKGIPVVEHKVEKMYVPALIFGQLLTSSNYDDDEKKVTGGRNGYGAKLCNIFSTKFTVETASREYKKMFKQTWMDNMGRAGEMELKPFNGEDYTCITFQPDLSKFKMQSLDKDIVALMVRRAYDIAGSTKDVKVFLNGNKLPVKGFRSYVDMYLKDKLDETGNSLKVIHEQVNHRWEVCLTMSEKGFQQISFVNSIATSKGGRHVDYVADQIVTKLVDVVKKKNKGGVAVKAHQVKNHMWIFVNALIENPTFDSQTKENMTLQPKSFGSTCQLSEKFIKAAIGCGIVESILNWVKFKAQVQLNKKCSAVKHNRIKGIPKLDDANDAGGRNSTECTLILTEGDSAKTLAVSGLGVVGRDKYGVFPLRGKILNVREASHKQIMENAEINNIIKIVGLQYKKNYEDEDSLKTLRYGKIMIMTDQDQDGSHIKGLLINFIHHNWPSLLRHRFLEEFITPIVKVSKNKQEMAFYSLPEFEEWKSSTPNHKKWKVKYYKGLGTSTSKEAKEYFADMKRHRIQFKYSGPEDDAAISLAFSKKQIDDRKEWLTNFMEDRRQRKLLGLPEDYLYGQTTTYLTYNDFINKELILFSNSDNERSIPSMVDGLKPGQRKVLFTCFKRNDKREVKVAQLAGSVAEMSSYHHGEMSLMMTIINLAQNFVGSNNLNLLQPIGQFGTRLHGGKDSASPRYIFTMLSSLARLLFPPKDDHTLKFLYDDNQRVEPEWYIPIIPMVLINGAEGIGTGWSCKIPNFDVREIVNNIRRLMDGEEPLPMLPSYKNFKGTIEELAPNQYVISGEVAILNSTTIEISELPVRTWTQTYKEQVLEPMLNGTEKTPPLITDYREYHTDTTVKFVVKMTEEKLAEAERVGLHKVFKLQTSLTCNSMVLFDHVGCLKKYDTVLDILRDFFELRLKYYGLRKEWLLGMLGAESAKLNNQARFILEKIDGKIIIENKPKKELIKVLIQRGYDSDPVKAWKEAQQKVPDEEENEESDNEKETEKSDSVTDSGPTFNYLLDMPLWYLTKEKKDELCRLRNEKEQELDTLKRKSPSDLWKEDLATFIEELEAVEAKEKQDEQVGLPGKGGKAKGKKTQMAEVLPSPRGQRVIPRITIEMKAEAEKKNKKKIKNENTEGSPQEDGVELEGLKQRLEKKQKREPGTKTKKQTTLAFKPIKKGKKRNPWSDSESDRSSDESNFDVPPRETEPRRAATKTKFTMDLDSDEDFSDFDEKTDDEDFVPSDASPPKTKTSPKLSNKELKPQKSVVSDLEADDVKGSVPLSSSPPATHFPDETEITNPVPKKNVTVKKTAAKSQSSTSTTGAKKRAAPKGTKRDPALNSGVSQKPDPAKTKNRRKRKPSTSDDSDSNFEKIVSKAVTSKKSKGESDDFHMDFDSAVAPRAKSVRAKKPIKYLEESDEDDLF

Structure (SMILES) | IC50 [1] | Activity (Bos taurus [2]) | Activity [7] | Activity [9] | further results
O=c1c(-c2ccc(O)cc2)coc2cc(O)c(O)cc12 | 162 µM | inactive |  |  | 
O=c1c(O)c(-c2ccc(O)c(O)c2)oc2cc(O)cc(O)c12 [QUERCETIN] | 22.8 µM |  | 60% |  | Activity [3]: Active; Activity (Escherichia coli): inactive; Activity [4]: 11.5%; IC50 [5]: 12.8 µg/mL (≈ 42.4 µM); Activity [6]: 2.2; Activity (Bos taurus [8]): Active
O=c1cc(-c2ccc(O)cc2)oc2cc(O)cc(O)c12 |  | inactive | 60% | inactive | Activity (Escherichia coli): inactive; Activity [4]: 8.7%; Activity [6]: 1.6
O=c1c(O)c(-c2cc(O)c(O)c(O)c2)oc2cc(O)cc(O)c12 [MYRICETIN] |  |  |  |  | Activity [10]: Active; Activity [11]: Active; IC50 [5]: 11.9 µg/mL (≈ 37.4 µM); Activity (Bos taurus [12]): inactive; Activity [13]: inactive; Activity [14]: inactive
O=c1c(-c2ccc(O)c(O)c2)coc2cc(O)ccc12 |  | inactive |  | inactive | 
O=c1c(O)c(-c2ccccc2)oc2ccccc12 |  | inactive |  | inactive | 
O=c1c(O)c(-c2ccc(O)cc2)oc2cc(O)cc(O)c12 |  | inactive | 60% | inactive | Activity (Escherichia coli): inactive; Activity [4]: 8.3%; Activity [6]: 1.6
O=c1c(-c2ccc(O)cc2)coc2cc(O)ccc12 |  | inactive |  | inactive | 
O=c1c(O)c(-c2ccc(O)cc2O)oc2cc(O)cc(O)c12 [MORIN] | 135 µM |  | < 50% |  | IC50 [5]: 42.1 µg/mL (≈ 139 µM)
COc1cc(O)c2c(=O)c(-c3ccc(O)cc3)coc2c1 |  | inactive | 60% | inactive | Activity (Escherichia coli): inactive; Activity [4]: 9.2%; Activity [6]: 1.7
O=c1cc(-c2ccccc2)oc2cccc(O)c12 |  | inactive | < 50% | inactive | 
O=c1cc(-c2ccccc2)oc2cc(O)ccc12 |  | inactive |  | inactive | 
Oc1cc(O)c2c(c1)O[C@H](c1ccc(O)c(O)c1)[C@@H](O)C2 |  | inactive |  | inactive | 
O=c1c(O)c(-c2ccc(O)c(O)c2)oc2cc(O)ccc12 [FISETIN] | 28.6 µM |  | < 50% |  | IC50 [5]: 20.6 µg/mL (≈ 72 µM)
O=c1c(O)c(-c2ccccc2)oc2cc(O)cc(O)c12 |  | inactive |  | inactive | 
O=c1cc(-c2ccccc2)oc2ccccc12 |  | inactive |  | inactive | 
C[C@@H]1O[C@@H](OC[C@H]2O[C@@H](Oc3c(-c4ccc(O)c(O)c4)oc4cc(O)cc(O)c4c3=O)[C@H](O)[C@@H](O)[C@@H]2O)[C@H](O)[C@H](O)[C@H]1O |  | inactive |  | inactive | 
O=c1c(-c2ccc(O)cc2)coc2cc(O)cc(O)c12 [GENISTEIN] | 111 µM | inactive |  |  | Activity [15]: Active; Activity (Escherichia coli): inactive; Activity [4]: 16.2%; Activity [6]: 3.1; Activity [16]: Active
O=c1cc(-c2ccccc2)oc2ccc(O)cc12 |  | inactive | < 50% | inactive | 
O=C(CCc1ccc(O)cc1)c1c(O)cc(O)cc1O [PHLORETIN] | 168 µM | inactive |  |  | 
